The record followed here is patent publication US11104618B2, “Fertilizer composition and methods of making and using same” (SABIC GLOBAL TECHNOLOGIES B.V., priority 2015, dated 2021).

Data set [1] in a line: Thermal stability of NBTPT at urea melt temperature by HPLC. It counts as physicochemical. As to the method:
The thermal stability of neat NBTPT and NBTPT contained within a core, as disclosed herein, can be determined by HPLC. For example, neat NBTPT or a core containing NBTPT can be exposed to 135° C. (133-135° C. is the typical temperature range of a urea melt) and can continuously be analyzed by HPLC every 5 min, until 30 min on analysis was reached. Such data will determine whether the NBTPT has better thermal stability when contained within a core, as compared to neat NBTPT.
Stability of inhibitors in urea melt: Extrudates containing inhibitors were tested for their stability in urea melt using HPLC and LCMS.

Data set [2] relates to Upland Crowley Soil. Put plainly: Nitrogen loss after 17 days of exposure to soil (IFDC). As to the method:
The nitrogen volatilization was measured in different soils for several samples and compared to products on the market, such as Agrotain®, ESN®, and SuperU®. The samples were tested in Greenville soil, Crowley soil, and Brownfield Soil. Crowley soil consists of very deep, somewhat poorly drained, very slowly permeable soils that formed in clayey fluviomarine deposits of the Pleistocene age. The soil exist in nearly level to very gently sloping soils and occur on flat coastal plains terraces. The slope is dominantly less than 1 percent but ranges to up to 3 percent. The mean annual precipitation is about 1549 mm (61 in), and the mean annual air temperature is about 20 degrees C. (68 degrees F.), where the soil is found. The soil is fine, […], and […].

Regarding `CCCCNP(N)(N)=S` [NBTPT, N-(n-butyl) thiophosphoric triamide], the “thermal stability of neat NBTPT” value in data set [1] (neat, exposed to 133-135° C. over time, FIG. 13) is on record as “decomposes at this temperature over time”. Also, in data set [1] (within a core exposed to 133-135° C. over time, FIG. 14), the “thermal stability of NBTPT within a fertilizer core particle” value was “stable over time and does not decompose”.

On to `NC(N)=O` [Urea, urea], for which the “Cumulative Nitrogen Loss (mg) by 17 Days” value in data set [2] (17 days of exposure to Upland Crowley Soil) was determined as 299.08 mg. In addition, the “% Urea” value in data set [2] (nitrogen loss relative to urea, 17 days, Upland Crowley Soil) is on record as 100%. Further, the “% Reduction in Nitrogen Loss” value in data set [2] (versus urea, 17 days, Upland Crowley Soil) amounted to 0%.
